# Measurements from US9475784B2, “4,6-diarylaminothiazines as BACE1 inhibitors and their use for the reduction of beta-amyloid production” (BRISTOL-MYERS SQUIBB COMPANY, priority 2012, dated 2016).
# pIC50: −log10 of the molar value. Where a name gives a salt, the structure may show the parent alone.
# Test system: Aβ42 production in H4 cells stably transfected with APP751 containing the Swedish mutation (H4 APP751 SWE clone 8.20)
# Assay: Cellular assay for inhibition of Aβ1-42 production (H4 APP751 SWE clone 8.20)
# Format: cell-based
# Conditions: H4 APP751 SWE clone 8.20 cells, 19 h incubation; Table 5A, 6-alkyl and 6-substituted phenyl thiazine examples
# Description: Cellular Assays for Inhibition of Aβ1-40 and Aβ1-42 Production
# H4 cells stably transfected with APP751 containing the Swedish mutation (H4 APP751 SWE clone 8.20, developed at BMS) were maintained in log phase through twice weekly passage at a 1:20 split. […] Following incubation for 19 h in 5% CO2 at 37° C., plates were briefly centrifuged (1000 rpm, 5 min). A 10 μl aliquot from each well was transferred to a second assay plate (Costar 3709) for Aβ40 measurements. Antibody cocktails were freshly prepared by dilution into 40 mM Tris-HCl (pH 7.4) with 0.2% BSA and added to assay plates. For Aβ42 measurements, antibodies specific for the Aβ42 neoepitope (565, developed at BMS; conjugated to the Wallac reagent (Perkin Elmer)) and the N-terminal sequence of Aβ peptide (26D6, developed at SIBIA; conjugated to APC (Perkin Elmer)) were mixed and 20 μl of the mixture was added to each well of the incubated cell plate yielding a final concentration of 0.8 ng/well 565 and 75 ng/well 26D6. For the Aβ40 measurements, antibodies specific for the Aβ40 neoepitope (TSD, developed at BMS; conjugated to the Wallac reagent (Perkin Elmer)) and 26D6 as described above were mixed and 20 μl of the mixture was added to the 10 μl aliquots which had been removed previously from the cell plate yielding a final concentration of 1.6 ng/well TSD and 17.5 ng/well 26D6. Assay plates containing antibodies were sealed with aluminum foil and incubated overnight at 4° C. Signal was determined using a Viewlux counter (Perkin Elmer) and IC50 values determined using curve fitting in CurveMaster (Excel Fit based).
row,Structure (SMILES),pIC50
1,"NC1=N[C@H](c2cccc(-c3cncnc3)c2)C[C@@H](c2ccc(F)cc2)S1 (racemic) [Example 16, (±)-6-(4-fluorophenyl)-4-(3-(pyrimidin-5-yl)phenyl)-5,6-dihydro-4H-1,3-thiazin-2-amine•TFA]",5.59

# Same assay, conditions: H4 APP751 SWE clone 8.20 cells, 19 h incubation; Table 5B, 6-heterocyclic thiazine examples
row,Structure (SMILES),pIC50
1,"Cc1noc(C)c1[C@@H]1C[C@@H](c2cc(NC(=O)c3ccc(Cl)cn3)ccc2F)N=C(N)S1 (racemic) [Example 38, N-(3-((±)-2-amino-6-(3,5-dimethylisoxazol-4-yl)-5,6-dihydro-4H-1,3-thiazin-4-yl)-4-fluorophenyl)-5-chloropicolinamide•TFA]",7.96
2,"NC1=N[C@H](c2cccc(-c3cncnc3)c2)C[C@@H](c2cccnc2)S1 (racemic) [Example 20, (±)-6-(pyridin-3-yl)-4-(3-(pyrimidin-5-yl)phenyl)-5,6-dihydro-4H-1,3-thiazin-2-amine•TFA]",5.11
3,"Cc1noc(C)c1[C@@H]1C[C@@](C)(c2cc(-c3cccnc3C#N)c(F)cc2F)N=C(N)S1 [Example 55, 3-(5-((4S,6S)-2-amino-6-(3,5-dimethylisoxazol-4-yl)-4-methyl-5,6-dihydro-4H-1,3-thiazin-4-yl)-2,4-difluorophenyl)picolinonitrile]",7.06
4,"Cc1noc(C)c1[C@@H]1C[C@@H](c2cc(NC(=O)c3ccc(Br)cn3)ccc2F)N=C(N)S1 (racemic) [Example 37, N-(3-((±)-2-amino-6-(3,5-dimethylisoxazol-4-yl)-5,6-dihydro-4H-1,3-thiazin-4-yl)-4-fluorophenyl)-5-bromopicolinamide]",7.66
5,"NC1=N[C@H](c2cccc(-c3cncnc3)c2)C[C@@H](c2cnccn2)S1 (racemic) [Example 23, (±)-6-(pyrazin-2-yl)-4-(3-(pyrimidin-5-yl)phenyl)-5,6-dihydro-4H-1,3-thiazin-2-amine•TFA]",5.62
6,"Cc1noc(C)c1[C@@H]1C[C@@](C)(c2cc(F)c(F)c(F)c2)N=C(N)S1 [Example 50, (4S,6S)-6-(3,5-dimethylisoxazol-4-yl)-4-methyl-4-(3,4,5-trifluorophenyl)-5,6-dihydro-4H-1,3-thiazin-2-amine]",6.08
